How the values were obtained:
Format in all cases: cell-based, human
T and B lymphocytes = assay: Mitogen response of PBMC enriched for T or B lymphocytes continuously cultured with drug; conditions: cultures continuously exposed to drug
Procedure: In FIG. 2, peripheral blood mononuclear cells enriched for either T (top) or B (bottom) lymphocytes were continuously cultured with the appropriate concentrations of drug for 3 or 6 days, respectively. The mitogen PHA-P was used at 5 μg/ml and the mitogen PWM was used at 1 μg/ml. The wells were pulsed and harvested as described above.
The adenosine analog 2-chlorodeoxyadenosine (2CDA) has also been reported to have significant cytotoxic and immunosuppressive effects on normal lymphocytes (10,13).

[1] = system: CD20, CD20/CD5 and CD3/CD5 lymphocyte subsets; assay: Flowcytometric phenotype of lymphocyte subsets in SAC + rIL-2 cultures; conditions: for CD20/CD5 subpopulations: end of 5 and 10 day culture periods, drug dose dependent, data not shown; for effect on relative percent of CD20, CD20/CD5 and CD3/CD5 staining cells: 5 day SAC + rIL-2 culture, FIG. 4; for CD20, % Viable (% Total) / CD20/5, % Viable (% Total): 5 day culture, 1.0 μg/ml FLP + SAC/rIL-2 (50 μ/ml)
Procedure: Approximately 5×10^5−1×10^6 PBMC, enriched T, or B lymphocytes were cultured in 1 ml of S-10 in Falcon 10×75 mm capped polypropylene tissue culture tubes (Falcon #2063) for the appropriate times at 37° C. in a humidified 5% CO2/air atmosphere. Recombinant IL-2 (rIL-2) was used at 50 U/ml and SAC was at a final concentration of {fraction (1/60,000)}. The mitogens phytohemagglutinin (PHA-P) (Pharmacia, #27-3707-01, Uppsala, Sweden) and pokeweed mitogen (PWM, Pharmacia, #27-3702-01) were used at 5 μg/ml and 10 μg/ml, respectively.
Cells were washed once in citrate buffered saline (C-BSS) and 10^5-10^6 cells per sample were aliquoted for staining. For direct immunofluorescence, […] of either FITC- or PC-conjugated CD-specific mouse monoclonal antibody (Becton Dickinson, San Jose, Calif.) were added to cells in […] of C-BSS and incubated at RT for 30 min. The samples were then washed once in 2 ml C-BSS, resuspended in 0.5 ml C-BSS and acquired on a B/D FACScan Flowcytometer using either Simulset or Lysis II software. During analysis of data files, lymphocytes were discriminated from monocytes and dead cells on the basis of their forward light scatter (FCS) properties and high positivity with anti-CD45 and anti-CD14 (leucogate).
In FIG. 4, at the end of the culture period, the cells were washed, fixed with 1% formalin/PBS, and stained with mouse monoclonals anti-CD20 (PE), anti-CD3 (PE), and anti-CD5 (FITC). The stained samples were analyzed on a FACScan flowcytometer using LYSYS II software. Viable cells were gated and results are expressed as percent of total viable events acquired.
Experiments were conducted that sampled supernatants and cells at 5 and 10 days culture with various amounts of drug.

IgG production = assay: Cumulative IgG production in SAC + rIL-2 cultures, EIA; conditions: for accumulation of IgG: 5 and 10 day SAC rIL-2 cultures, preliminary studies; for effect on IgG production: FIG. 7B
From the text: In FIG. 7, peripheral blood mononuclear cells (PBMC) enriched for B lymphocytes (BC92; 35% CD19, 33% CD20, 35% CD3) were continuously cultured for 5 days in either medium alone, Staphylococcus aureus Cowan I (SAC) plus interleukin 2 (IL-2) (50 U/ml), or SAC plus IL-2 in the presence of various concentrations of FLP or 2-chlorodeoxyadenosine (2CDA). After 5 days of culture, the supernatants were harvested and serial dilutions of supernatant assayed for huIgM and huIgG by EIA. The presence of IgM rheumatoid factor (IgM-RF) was determined by EIA using the Vectastain Biotin-Streptavidin amplification system. Results are reported as O.D. 405 nm units. Nonspecific binding of neat supernatant to uncoated wells was <0.05% of that seen with the respective coated wells. The results shown are from 1 representative experiment of 4 separate experiments conducted with 4 different sources of packed leukocytes.
In FIG. 8, peripheral blood mononuclear cells (PBMC) enriched for B lymphocytes (BC92, 35% CD19, 33% CD20, 35% CD3) were continuously cultured for 10 days in either medium alone, Staphylococcus aureus Cowan I (SAC) plus interleukin 2 (IL-2) (50 U/ml), or SAC plus IL-2 in the presence of various concentrations of FLP or 2CDA. At the end of the culture period, the supernatants were harvested and serial dilutions assayed for huIgM, huIgG, and IgM-RF by EIA. The cells were phenotyped by flowcytometry. Results are reported as O.D. 405 nm units. Nonspecific binding of neat supernatants to uncoated wells was <0.5% of that seen with parallel coated wells. The results shown are from 1 experiment representative of 3 separate experiments conducted with 3 different sources of packed leukocytes.
In FIG. 9, peripheral blood mononuclear cells (PBMC) (BC93; 22% CD19, 20% CD20, 78% CD3) were continuously cultured for 5 days in either medium alone, Staphylococcus aureus Cowan I (SAC) plus interleukin 2 (IL-2) (50 U/ml) or 20% T cell conditioned medium (Tcm) in the presence of various concentrations of FLP. At the end of the 5 day culture period, the supernatants were harvested and serial dilutions assayed for huIgM, huIgG, and IgM-RF by EIA. The results are reported as O.D. 405 nm units. Nonspecific binding of neat supernatants to uncoated wells was <0.05% of parallel coated wells. The results shown are from one representative experiment.
Immulon-2 (Dynatek Laboratories, #011-010-3450, Chantilly, Va.) flat-bottom 96 well microtiter plates were coated with 100 μl/well of a 2 μg/ml solution of goat F(ab′)2 anti-HuIgM (μ chain, CALTAG #H15100, So. San Francisco, Calif.) or goat F(ab′)2 anti-HuIgG (Fc sp., CALTAG #H10100) in 0.1 M sodium carbonate buffer, pH 9.6 overnight at 4° C. Uncoated wells were incubated with the carbonate buffer alone. The plates were rinsed and then incubated with 100 μl/well of 0.1% BSA/PBS for 1 hr at RT. The plates were rinsed twice with PBS and then incubated for 2 hrs at RT with the respective serial dilutions of culture supernatant and human IgM or IgG standards (Sigma, St.
Louis, Mo.). All dilutions were made in complete S-10 medium (see above). At the end of the incubation period, the plates were rinsed 3 times with PBS/0.05% Tween-20. 100 μl of a 1/500 dilution of goat F(ab′)2 anti-IgM (m) or anti-IgG (H+L) conjugated with alkaline phosphatase (Fisher Biotech, #OB1210-ALPH and #OB1220-ALPH, Pittsburg, Pa.) was added to each well and incubated for 1 hr at RT. The plates were rinsed 3-5 times with PBS/0.05% Tween-20 and 100 μl/well of p-nitrophenyl phosphate substrate (Bio-Rad, Richmond, Calif.) was added and incubated for 30 min. The wells were read at 405 nm with an InterMed NJ-2000 immunoreader. The concentration of sample IgM or IgG was calculated off of a standard curve using the XFROMY linear regression analysis on RS-1 (VAX-VMS). Nonspecific binding was determined from low-dilution samples incubated in parallel in uncoated wells (<0.005% O.D. 405 nm of coated wells). […]

Nc1nc(Cl)nc2c1ncn2[C@H]1C[C@H](O)[C@@H](CO)O1 [2CDA, 2-chlorodeoxyadenosine]
level of drug that suppresses the mitogen response (T and B lymphocytes): 0.5 µg/mL | CD20/CD5 subpopulations [1]: decreased | accumulation of IgG (IgG production): dose-related decrease | effect on IgG production (IgG production; one microgram per ml, 5 days): block | effect on IgG accumulation (IgG production; one microgram per ml, 10 days): block the accumulation

Nc1nc(F)nc2c1ncn2[C@@H]1O[C@H](COP(=O)(O)O)[C@@H](O)[C@@H]1O [FLP, fludarabine-5′-monophosphate]
level of drug that suppresses the mitogen response (T and B lymphocytes): 0.5 µg/mL | effect on relative percent of CD20, CD20/CD5 and CD3/CD5 staining cells ([1]; 0.1 μg/ml): minimal effect | effect on relative percent of CD20, CD20/CD5 and CD3/CD5 staining cells ([1]; 0.5 μg to 5.0 μg/ml): dose-dependent decrease | CD20, % Viable (% Total) ([1]; IL-6 +): 60% | CD20/5, % Viable (% Total) ([1]; IL-6 +): 1.9% | CD20, % Viable (% Total) ([1]; IL-6 −): 64% | CD20/5, % Viable (% Total) ([1]; IL-6 −): 1.8% | CD20/CD5 subpopulations [1]: decreased | effect on IgG accumulation (IgG production; 0.1 μg/ml, 10 days, FIG. 8B): minimal effect | reduction of IgG accumulation (IgG production; 1 μg, 10 days, FIG. 8B): 80% | reduction of IgG accumulation (IgG production; 5 μg, 10 days, FIG. 8B): 98% | reduction of IgG accumulation (IgG production; 0.1 and 0.5 μg/ml, PBMC, 5 days, cultures supplemented with T cell conditioned medium, FIG. 9B): not seen | accumulation of IgG (IgG production): dose-related decrease | effect on IgG production (IgG production; one hundred nanograms per ml, 5 days): minimal effect

— patent publication US6337333B1, “Method of treating autoimmune disease with fludarabine-5′-monophosphate” (priority 1992, dated 2002)
